In patent publication EP0515927A2, “Pradimicin antibiotics” (priority 1991, dated 1992):
In brackets after ≈: the same amount, converted by molar mass. Where two headings read alike, the source gives them in different places.

Legend:
[1] = tested on: herpes simplex virus type I (HSV-1); conditions: 72 h
Vero cells = conditions: HSV-Vero cell, (TD50: 50% cytotoxicity without virus)
C. albicans A9540 = experiment: In vivo efficacy against C. albicans A9540 systemic infection in mice; set-up: species or system male ICR mice; conditions: single i.v. injection immediately after i.v. challenge; survivors on 20th day
Experimental: The in vivo efficacy of pradimicins was evaluated against C. albicans A9540 systemic infection in male ICR mice (20-24 g body weight). The pathogen was cultured for 18 hours at 28°C in YGP medium (yeast extract 0.2%, glucose 1.5%, peptone 0.5%, K2HP04 0.05% and MgS04 0.05%) and resuspended in saline. Mice were challenged intravenously with 10 times lethal dose of the pathogen. Immediately after the fungal challenge, groups of 5 mice received a single intravenous injection of pradimicin S or FS or N-methyl pradimicin S at various dose levels. Amphotericin B and Fluconazol were used as positive controls. The median protective dose (PDso) was determined from the number of surviving mice recorded on the 20th day after the fungal infection.

various fungal organisms = experiment: In vitro antifungal activity, agar dilution method, Yeast Morphology agar with 1/15 M phosphate buffer (pH 7.0); format: cell-based; conditions: summary in words (Table 7 is an image)
Experimental: The in vitro antifungal activity of pradimicins was determined by a conventional agar dilution method using Yeast Morphology agar containing 1/15 M phosphate buffer (pH 7.0).

influenza virus A = experiment: In vitro antiviral activity, influenza virus A-MDCK cell system, dye-uptake assay (inhibition of viral cytopathic effect); format: cell-based; conditions: 50% inhibition of cytopathic effect, 72 hours
[2] = tested on: Madin Darby canine kidney (MDCK) cell; conditions: Influenza virus-MDCK cell, (TD50: 50% cytotoxicity without virus)
[3] = Acute toxicity in mice after single i.v. administration; format: in vivo
Experimental: The acute toxicity of pradimicins S and FS and N-methyl pradimicin S was determined in mice after single administration (i.v.).

[4] = mouse, in vivo, iv, read-out: LD50

Molecule	ID50 [1] [µg/mL]	ID50 (Vero cells) [µg/mL]	PD50 mg/kg (i.v.) (C. albicans A9540) [mg/kg]	in vitro antifungal activity (various fungal organisms)	ID50 (influenza virus A) [µg/mL]	ID50 [2] [µg/mL]	LD50 [3, 4] [mg/kg]	LD50 [3] [mg/kg]
Nc1nc2c(ncn2COCCO)c(=O)[nH]1 [Acyclovir, reference compound]	0.09 (≈ 0.4 µM)	>100						
C[C@@H]1[C@H](O)[C@@H](C)/C=C/C=C/C=C/C=C/C=C/C=C/C=C/[C@H](O[C@@H]2O[C@H](C)[C@@H](O)[C@H](N)[C@@H]2O)C[C@@H]2O[C@](O)(C[C@@H](O)C[C@@H](O)[C@H](O)CC[C@@H](O)C[C@@H](O)CC(=O)O[C@H]1C)C[C@H](O)[C@H]2C(=O)O [Amphotericin B, reference compound]			0.31					
OC(Cn1cncn1)(Cn1cncn1)c1ccc(F)cc1F [Fluconazol, reference compound]			>50					
CN[C@@H]1[C@H](O[C@@H]2O[C@H](CO)[C@@H](O)[C@H](OS(=O)(=O)O)[C@H]2O)[C@@H](O)[C@H](O[C@H]2c3cc(C)c(C(=O)N[C@H](CO)C(=O)O)c(O)c3-c3c(cc4c(c3O)C(=O)c3cc(OC)cc(O)c3C4=O)[C@@H]2O)O[C@@H]1C [Pradimicin FS, pradimicin FS]	>100	>100	18	activity against various fungal organisms	82 (≈ 84.8 µM)	>100	210	
CN[C@@H]1[C@H](O[C@@H]2O[C@H](CO)[C@@H](O)[C@H](OS(=O)(=O)O)[C@H]2O)[C@@H](O)[C@H](O[C@H]2c3cc(C)c(C(=O)N[C@H](C)C(=O)O)c(O)c3-c3c(cc4c(c3O)C(=O)c3cc(OC)cc(O)c3C4=O)[C@@H]2O)O[C@@H]1C [Pradimicin S, pradimicin S]	>100	>100	35	activity against various fungal organisms	22 (≈ 23.1 µM)	>100	244	
NC(=O)c1ncn([C@@H]2O[C@H](CO)[C@@H](O)[C@H]2O)n1 [Ribavirin, reference compound]					9.5 (≈ 38.9 µM)			
N-methyl pradimicin S [BMY-29273]			47	activity against various fungal organisms				≥ 424
